Data reported in paper PMC6950969 (Saudi Pharmaceutical Journal : SPJ, 2019).
Converted amounts (≈) assume the structure as drawn. Counter-ions that a name gives are not always drawn.

How the values were obtained:
Caco-2 cells = conditions: purified from A. dahurica; ref Liu et al., 2016; cited from earlier work
pPI3K and pAkt = conditions: cells Caco-2; ref Liu et al., 2016; cited from earlier work
[1] = Anti-lipid peroxidation activity
[2] = tested on: Acetylcholinesterase (AChE); assay: AChE inhibition, Ellman's method; format: biochemical; conditions: 20 µg/mL
[3] = tested on: butyrylcholinesterase (BChE); assay: BChE inhibition, Ellman's method; format: biochemical; conditions: for Percentile of inhibition ± S.E.M against BChE: 20 µg/mL
hCA I = hCA I (Homo sapiens, UniProt P00915); assay: hCA I inhibition, esterase activity; format: biochemical
hCA II = hCA II (Homo sapiens, UniProt P00918); assay: hCA II inhibition, esterase activity; format: biochemical
[4] = tested on: butyrylcholinesterase (BChE); conditions: coumarins from Angelica officinalis L. fruits; ref Ferreira et al., 2006; cited from earlier work

Chain of hCA I (P00915 whole entry): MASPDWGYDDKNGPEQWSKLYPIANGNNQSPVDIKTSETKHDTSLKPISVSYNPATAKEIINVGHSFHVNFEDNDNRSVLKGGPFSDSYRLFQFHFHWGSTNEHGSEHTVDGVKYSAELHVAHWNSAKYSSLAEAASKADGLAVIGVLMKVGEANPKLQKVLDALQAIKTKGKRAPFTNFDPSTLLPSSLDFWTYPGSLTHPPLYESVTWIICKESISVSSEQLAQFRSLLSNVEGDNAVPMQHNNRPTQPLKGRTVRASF

Compound | IC50 values ± SD, anti-lipid peroxidation (TBA test) [1] | Percentile of inhibition ± S.E.M against BChE [3] | inhibition towards butyrylcholinesterase (BChE) (in words) [4] | other results
Oxypeucedanin hydrate monoacetate | – | – | – | cancer cell migration (in words) (Caco-2 cells): inhibition of cancer cell migration; expression of pPI3K and pAkt (in words) (pPI3K and pAkt): significant down-regulation
COc1c2ccoc2cc2oc(=O)ccc12 [Bergapten] | 56.99 ± 3.87 µg/mL (≈ 264 µM) | 31.00 ± 3.02% | strong inhibition | Percentile of inhibition ± S.E.M against AChE [2]: 18.98 ± 2.98%; IC50 (hCA I): 7.29 µM; Ki (hCA I): 4.79 ± 0.57 µM; IC50 (hCA II): 8.25 µM; Ki (hCA II): 12.8 ± 1.92 µM
CC[C@H](/C=C/[C@@H](C)[C@H]1CC[C@H]2[C@@H]3CC=C4C[C@@H](O)CC[C@]4(C)[C@H]3CC[C@]12C)C(C)C [Stigmasterol] | – | 13.34 ± 2.99% | – | BChE inhibition activity (in words) [3]: did not show considerable inhibition towards BChE
CC1(C)O[C@H]1COc1c2ccoc2cc2oc(=O)ccc12 [Oxypeucedanin] | 91.27 ± 2.76 µg/mL (≈ 319 µM) | 36.89 ± 1.23% | – | Percentile of inhibition ± S.E.M against AChE [2]: 19.36 ± 1.87%; IC50 (hCA I): 6.73 µM; Ki (hCA I): 5.33 ± 1.08 µM; IC50 (hCA II): 5.29 µM; Ki (hCA II): 8.85 ± 1.05 µM
CC(C)=CCOc1c2occc2cc2ccc(=O)oc12 [imperatorin] | – | – | strong inhibition | –
COc1cc2c(cc1OC)C(=O)C(CC1CCN(Cc3ccccc3)CC1)C2 (centres unmarked) [Donepezil, donepezil hydrochloride, reference compound] | – | 90.33 ± 4.16% | – | –
O=C(/C=C/c1ccc(O)c(O)c1)O[C@@H]1C[C@](O)(C(=O)O)C[C@@H](O)[C@H]1O [Chlorogenic acid, reference compound] | 12.98 ± 4.89 µg/mL (≈ 36.6 µM) | – | – | –
CC[C@H](CC[C@@H](C)[C@H]1CC[C@H]2[C@@H]3CC=C4C[C@@H](O)CC[C@]4(C)[C@H]3CC[C@]12C)C(C)C [β-Sitosterol] | 492.30 ± 2.03 µg/mL (≈ 1190 µM) | 9.93 ± 1.78% | – | BChE inhibition activity (in words) [3]: did not show considerable inhibition towards BChE
C[C@@H]1O[C@@H](OC[C@H]2O[C@@H](Oc3c(-c4ccc(O)c(O)c4)oc4cc(O)cc(O)c4c3=O)[C@H](O)[C@@H](O)[C@@H]2O)[C@H](O)[C@H](O)[C@H]1O [Rutin, reference compound] | 9.65 ± 3.09 µg/mL (≈ 15.8 µM) | – | – | –
CCCOC(=O)c1cc(O)c(O)c(O)c1 [Propyl gallate, reference compound] | 3.44 ± 2.05 µg/mL (≈ 16.2 µM) | – | – | –
CC(C)=CCOc1c2ccoc2cc2oc(=O)ccc12 [isoimperatorin] | – | – | strong inhibition | –
COc1c2occc2cc2ccc(=O)oc12 [xanthotoxin] | – | – | strong inhibition | –
